The source of these data is patent US20210236443A1, “METHOD OF TREATMENT OF NON-ALCOHOLIC STEATOHEPATITIS, NASH” (KRISH BIOTECH RESEARCH PRIVATE LIMITED, priority 2018, published 2021).

Each structure is given as a SMILES string.

For one assay, the system named is MCP-1. Briefly: MCP-1 release in LPS-stimulated RAW 264.7 cells. Format: cell-based. The note with it: Mus musculus, RAW264.7, LPS 10 ng/ml, 2.5 hours, compound pre-incubation 1 hour. On the procedure: (§1) Assay for TNFα and MCP-1 Release in RAW 264.7 Cells:
(§2) Cells were seeded at a density of 50000 cells/well/100 μl in a 96 well plate and left overnight in the CO2 incubator under normal cell culture conditions for adherence. Next day, old media was removed and fresh media added per well with compounds in duplicate for 1 hour with 0.1% DMSO. Cells were stimulated with LPS (Lipopolysaccharides) at 10 ng/ml and incubated at cell culture conditions for 2.5 hours. Post incubation, the supernatant was collected in fresh 96 well plate and stored at −80 degree for TNF-α, and MCP-1 estimation.
(§3) The dose-response curve was analyzed using Sigma Plot/Graph Pad. The IC50 (concentration of the test compounds where 50% of compounds' maximal activity is observed) values were calculated from the dose-response curve.

In a further assay the test system is TNFα. The assay is described as follows: TNFα release in LPS-stimulated RAW 264.7 cells. The settings on record: Mus musculus, RAW264.7, LPS 10 ng/ml, 2.5 hours, compound pre-incubation 1 hour, read-out: TNF-alpha IC50. The assay is classed as cell-based. As to the method: as §1, §2, §3

One may read the IC50 as the concentration that inhibits the measured activity by half. Take `CC1(c2ccc(-c3ccc(F)cc3COc3ccc(CCCC(=O)O)cc3)s2)CC1` [SI. No. 20, 4-(4-((5-Fluoro-2-(5-(1-methylcyclopropyl)thiophen-2-yl)benzyl)oxy)phenyl) butanoic acid]: the IC50 in the assay with MCP-1 was 1080 nM; in the assay with TNFα, 660 nM.
The corresponding values for `CC1(c2ccc(-c3ccc(F)cc3COc3ccc(CCCC(=O)O)cc3)cc2)CC1` [SI. No. 2, 4-(4-((4-Fluoro-4′-(1-methylcyclopropyl)-[1,1′-biphenyl]-2-yl)methoxy)phenyl)butanoic acid] are 290 nM and 5650 nM.
The corresponding values for `O=C(O)CCCc1ccc(OCc2cc(F)ccc2-c2ncc(C3CC3)s2)cc1` [SI. No. 24, 4-(4-((2-(5-Cyclopropylthiazol-2-yl)-S-fluorobenzyl)oxy)phenyl)butanoic acid] are 230 nM and 630 nM.
Regarding `O=C(O)CCCc1ccc(OCc2cc(F)ccc2-c2ccc(C3CC3)s2)cc1` [SI. No. 8, 4-(4-((2-(5-Cyclopropylthiophen-2-yl)-S-fluorobenzyl)oxy)phenyl)butanoic acid], the IC50 in the assay on MCP-1 was 2040 nM; in the assay with TNFα, above 10000 nM.
